Measured values: PMC5111045, “Modulation of NMDA channel gating by Ca^2+ and Cd^2+ binding to the external pore mouth” (Scientific Reports, 2016)

Experiments:
[1] = test system: triple mutant NMDA channel (three negatively charged DRPEER residues neutralized); design: method as in PMID 12451122; settings: 1 mM Ca2+; decreased from 56 pS; cited from earlier work
[2] = molecular target: T1, NMDA receptor channel (GluN1a variant/GluN2B), wild-type (Rattus norvegicus, UniProt P35439+Q00960); assay: Outside-out patch recordings of NMDA receptor currents, wild-type channel expressed in Xenopus oocytes; type: cell-based; settings: 2 mM extracellular Ca2+
T1 construct: expressed in transfected cells; host or cells: Xenopus laevis oocytes (cRNA injection)
T1 sequence (Q00960 27-1482, other chains not shown): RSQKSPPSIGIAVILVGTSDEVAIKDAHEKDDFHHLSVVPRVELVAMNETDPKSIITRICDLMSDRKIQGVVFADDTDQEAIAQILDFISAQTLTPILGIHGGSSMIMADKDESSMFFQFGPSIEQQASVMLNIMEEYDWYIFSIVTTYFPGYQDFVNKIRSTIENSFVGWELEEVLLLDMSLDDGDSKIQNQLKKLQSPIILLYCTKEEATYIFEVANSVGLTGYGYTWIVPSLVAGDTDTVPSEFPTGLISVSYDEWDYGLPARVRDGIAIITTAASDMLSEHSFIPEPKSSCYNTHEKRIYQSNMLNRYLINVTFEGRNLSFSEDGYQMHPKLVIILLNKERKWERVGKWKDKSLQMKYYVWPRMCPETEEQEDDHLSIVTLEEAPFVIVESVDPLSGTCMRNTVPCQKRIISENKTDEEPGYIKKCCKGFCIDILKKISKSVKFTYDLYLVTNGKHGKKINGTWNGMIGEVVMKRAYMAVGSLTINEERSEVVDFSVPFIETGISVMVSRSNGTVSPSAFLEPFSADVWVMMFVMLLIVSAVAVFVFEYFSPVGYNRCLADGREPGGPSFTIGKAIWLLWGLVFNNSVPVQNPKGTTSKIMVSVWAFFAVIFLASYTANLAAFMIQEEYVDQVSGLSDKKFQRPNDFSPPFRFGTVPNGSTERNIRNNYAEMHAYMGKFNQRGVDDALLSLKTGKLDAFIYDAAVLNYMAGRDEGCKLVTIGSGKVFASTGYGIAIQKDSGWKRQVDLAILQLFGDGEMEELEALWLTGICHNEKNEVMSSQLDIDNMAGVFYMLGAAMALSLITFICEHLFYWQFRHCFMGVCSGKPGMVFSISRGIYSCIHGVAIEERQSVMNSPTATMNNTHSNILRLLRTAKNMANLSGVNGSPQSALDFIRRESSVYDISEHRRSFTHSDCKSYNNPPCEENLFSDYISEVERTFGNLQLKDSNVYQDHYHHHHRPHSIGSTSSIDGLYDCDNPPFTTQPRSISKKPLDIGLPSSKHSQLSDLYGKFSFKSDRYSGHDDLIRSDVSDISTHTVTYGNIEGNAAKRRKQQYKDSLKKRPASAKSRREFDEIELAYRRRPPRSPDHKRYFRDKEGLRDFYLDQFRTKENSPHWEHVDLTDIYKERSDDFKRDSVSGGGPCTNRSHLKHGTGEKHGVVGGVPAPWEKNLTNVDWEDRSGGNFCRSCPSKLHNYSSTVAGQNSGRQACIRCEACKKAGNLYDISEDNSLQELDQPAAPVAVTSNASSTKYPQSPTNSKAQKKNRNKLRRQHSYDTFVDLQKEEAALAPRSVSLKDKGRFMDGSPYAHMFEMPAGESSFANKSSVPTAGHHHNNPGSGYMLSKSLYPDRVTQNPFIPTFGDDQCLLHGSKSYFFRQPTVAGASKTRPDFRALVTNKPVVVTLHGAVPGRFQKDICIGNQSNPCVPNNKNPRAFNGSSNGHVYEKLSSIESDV
Procedure: (§1) The rat GluN1a variant and GluN2B cDNA clones were used in this study. Point mutations were made by site-directed mutagenesis using the QuickChange Site-Directed Mutagenesis kit (Stratagene, La Jolla, CA). Mutations were verified by DNA sequencing to ensure the lack of any inadvertent mutations. The capped cRNA transcripts were then synthesized using T7 and T3 mMESSAGE mMACHINE transcription kits (Ambion, Austin, TX), and were stored at −80 °C.
(§2) This study was carried out in accordance with the ethical information guidelines of the National Taiwan University College of Medicine. The protocols for the care and use of animals were approved by the National Taiwan University College of Medicine and College of Public Health Institutional Animal Care and Use Committee (IACUC). All efforts were made to minimize animal suffering. Adult female Xenopus laevis were anesthetized, and ovarian lobes containing stage V or VI oocytes were removed. Oocytes were dispersed after manual disruption of the egg sac, and were digested for 1 hr with collagenase type I (2 mg/ml) to remove the follicular layer. A mixture of GluN1a variant and GluN2B cRNAs with a ratio of 1:5 (i.e., 0.1–4 ng of GluN1a variant and 0.5–20 ng of GluN2B) (Kashiwagi et al. 2002) was injected into oocytes. Oocytes were maintained in the culture medium (96 mM NaCl, 2 mM KCl, 1.8 mM MgCl2, 1.8 mM CaCl2, 5 mM HEPES, and 50 ug/ml gentamycin, pH 7.6) at 18 °C for 2–3 days before electrophysiological recordings.
Oocytes were placed in a recording chamber containing Mg^2+-free bath solution (150 mM NaMeSO3, 5 mM NaCl, and 10 mM HEPES; pH 7.4). Outside-out patch recordings were obtained using fire-polished pipettes pulled from borosilicate capillaries (outer diameter, 1.55–1.60 mm; Hilgenberg, Malsfeld, Germany). Recording pipettes ([…]) were filled with the pipette solution containing 150 mM NaMeSO3, 5 mM NaCl, 5 mM EGTA, and 10 mM HEPES (pH 7.4). A seal was formed, and the outside-out patch configuration was obtained in Tyrode’s solution (150 mM NaCl, 4 mM KCl, 2 mM MgCl2, 2 mM CaCl2, and 10 mM HEPES; pH 7.4). The patch was then lifted from the bottom of the chamber and moved in front of a set of “theta glass” tubes (2.0 mm outer diameter pulled to an opening of ~300 μm in width; Warner Instrument, Hamden, CT) emitting external recording solutions. The standard external solution was Mg^2+-free Ca^2+-free Tyrode’s solution (pH 7.4), but 2 mM Ca^2+ or 0.1–100 μM Cd^2+ may be added to the external recording solution as specified in each different experimental condition. The glass-tube holder was connected to a stepper motor (SF-77B perfusion system, Warner Instrument) to achieve fast switch for rapid solution change. Drugs and salts were purchased from Sigma (St. Louis, MO). NMDA, glycine, and Cd^2+ were dissolved in water to make 100, 100, and 10 mM stock solutions, respectively. The stock solutions were then diluted into the external recording solution to make 1 to 100 μM Cd^2+, 1 to 300 μM NMDA, and 30 μM glycine. The NMDA currents were recorded at a membrane potential of −70 mV and at room temperature (~25 °C) with an […] amplifier, filtered at 1 kHz with a four-pole Bessel filter, digitized at 500 μs intervals, and stored using a Digidata-1322A analog/digital interface along with the pCLAMP software (all from MDS Analytical Technologies, Sunnyvale, CA). To plot the activation and the desensitization curves, a patch was moved from the NMDA- and glycine-free external solution to the external solution containing 0 to 100 μM NMDA and 30 μM glycine for 3 s (the desensitization prepulse), and then moved to another external solution containing 300 μM NMDA and 30 μM glycine for 3 s (the test pulse) before being moved back to the NMDA-free external solution again. The amplitude of the sustained currents in the desensitization prepulse in each different concentration of NMDA is normalized to the maximal current and plotted against the NMDA concentration to obtain the activation curve. […]

[3] = molecular target: T2, T647A (GluN2B) mutant NMDA channel (Rattus norvegicus, UniProt P35439+Q00960, T647A); assay: Outside-out patch recordings, T647A (GluN2B) mutant NMDA channel; type: cell-based; settings: 2 mM Ca2+; P = 0.028
T2 construct: expressed in transfected cells; host or cells: Xenopus laevis oocytes (cRNA injection)
T2 sequence (Q00960 27-1482 T647A, other chains not shown): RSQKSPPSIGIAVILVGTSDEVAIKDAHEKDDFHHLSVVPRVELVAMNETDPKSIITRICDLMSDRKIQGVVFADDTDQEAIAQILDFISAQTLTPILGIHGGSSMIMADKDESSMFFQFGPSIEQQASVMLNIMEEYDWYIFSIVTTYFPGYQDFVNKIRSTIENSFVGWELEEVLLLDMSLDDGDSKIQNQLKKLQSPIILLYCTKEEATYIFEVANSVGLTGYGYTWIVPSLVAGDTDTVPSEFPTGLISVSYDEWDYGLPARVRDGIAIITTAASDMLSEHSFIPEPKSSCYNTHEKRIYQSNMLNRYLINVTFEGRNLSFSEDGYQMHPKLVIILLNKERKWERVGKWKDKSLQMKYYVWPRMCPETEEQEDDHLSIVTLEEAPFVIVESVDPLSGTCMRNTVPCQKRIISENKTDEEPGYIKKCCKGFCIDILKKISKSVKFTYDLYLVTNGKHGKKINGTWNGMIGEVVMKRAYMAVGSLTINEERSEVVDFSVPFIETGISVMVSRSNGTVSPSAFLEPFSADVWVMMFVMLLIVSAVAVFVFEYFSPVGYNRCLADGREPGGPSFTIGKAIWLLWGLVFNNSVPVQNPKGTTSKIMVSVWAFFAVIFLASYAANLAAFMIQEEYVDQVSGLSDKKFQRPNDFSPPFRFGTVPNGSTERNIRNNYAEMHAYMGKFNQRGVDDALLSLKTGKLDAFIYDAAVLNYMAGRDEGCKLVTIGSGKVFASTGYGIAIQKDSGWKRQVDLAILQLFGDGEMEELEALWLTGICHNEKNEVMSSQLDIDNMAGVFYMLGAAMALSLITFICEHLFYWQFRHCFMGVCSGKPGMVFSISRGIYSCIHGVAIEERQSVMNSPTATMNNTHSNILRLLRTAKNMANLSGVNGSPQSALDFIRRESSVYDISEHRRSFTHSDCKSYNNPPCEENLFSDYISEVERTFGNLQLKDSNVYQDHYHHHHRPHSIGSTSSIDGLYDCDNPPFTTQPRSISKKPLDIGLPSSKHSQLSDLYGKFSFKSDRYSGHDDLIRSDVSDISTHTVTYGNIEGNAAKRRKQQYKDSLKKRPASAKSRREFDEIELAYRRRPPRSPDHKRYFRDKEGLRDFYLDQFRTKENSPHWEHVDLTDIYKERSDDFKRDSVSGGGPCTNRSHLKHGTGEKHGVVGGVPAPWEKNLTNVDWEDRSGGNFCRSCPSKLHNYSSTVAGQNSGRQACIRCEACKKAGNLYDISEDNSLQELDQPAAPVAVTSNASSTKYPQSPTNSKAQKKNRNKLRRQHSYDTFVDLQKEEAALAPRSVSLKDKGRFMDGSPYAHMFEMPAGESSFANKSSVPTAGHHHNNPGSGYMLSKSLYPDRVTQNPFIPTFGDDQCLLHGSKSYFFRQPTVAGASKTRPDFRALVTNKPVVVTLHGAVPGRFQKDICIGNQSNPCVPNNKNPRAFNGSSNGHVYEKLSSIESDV
Procedure: as §1, §2
Oocytes were placed in a recording chamber containing Mg^2+-free bath solution (150 mM NaMeSO3, 5 mM NaCl, and 10 mM HEPES; pH 7.4). […] The NMDA currents were recorded at a membrane potential of −70 mV and at room temperature (~25 °C) with an […] amplifier, filtered at 1 kHz with a four-pole Bessel filter, digitized at 500 μs intervals, and stored using a Digidata-1322A analog/digital interface along with the pCLAMP software (all from MDS Analytical Technologies, Sunnyvale, CA). […]

[4] = test system: wild-type NMDA channel; design: method as in PMID 12451122; settings: 1 mM Ca2+; decreased from 73 pS; cited from earlier work
[5] = molecular target: T3, E661AE662A double mutant NMDA channel (Rattus norvegicus, UniProt P35439+Q00960, E661A/E662A); assay: Outside-out patch recordings, E661AE662A double mutant NMDA channel; type: cell-based; settings: 2 mM extracellular Ca2+; n = 6, WT n = 9; P = 5.1*10^−5
T3 construct: expressed in transfected cells; host or cells: Xenopus laevis oocytes (cRNA injection)
T3 sequence (Q00960 27-1482, other chains not shown): as the sequence (Q00960 27-1482, other chains not shown) above
Procedure: as §1, §2
Oocytes were placed in a recording chamber containing Mg^2+-free bath solution (150 mM NaMeSO3, 5 mM NaCl, and 10 mM HEPES; pH 7.4). Outside-out patch recordings were obtained using fire-polished pipettes pulled from borosilicate capillaries (outer diameter, 1.55–1.60 mm; Hilgenberg, Malsfeld, Germany). Recording pipettes ([…]) were filled with the pipette solution containing 150 mM NaMeSO3, 5 mM NaCl, 5 mM EGTA, and 10 mM HEPES (pH 7.4). A seal was formed, and the outside-out patch configuration was obtained in Tyrode’s solution (150 mM NaCl, 4 mM KCl, 2 mM MgCl2, 2 mM CaCl2, and 10 mM HEPES; pH 7.4). The patch was then lifted from the bottom of the chamber and moved in front of a set of “theta glass” tubes (2.0 mm outer diameter pulled to an opening of ~300 μm in width; Warner Instrument, Hamden, CT) emitting external recording solutions. The standard external solution was Mg^2+-free Ca^2+-free Tyrode’s solution (pH 7.4), but 2 mM Ca^2+ or 0.1–100 μM Cd^2+ may be added to the external recording solution as specified in each different experimental condition. The glass-tube holder was connected to a stepper motor (SF-77B perfusion system, Warner Instrument) to achieve fast switch for rapid solution change. Drugs and salts were purchased from Sigma (St. Louis, MO). NMDA, glycine, and Cd^2+ were dissolved in water to make 100, 100, and 10 mM stock solutions, respectively. The stock solutions were then diluted into the external recording solution to make 1 to 100 μM Cd^2+, 1 to 300 μM NMDA, and 30 μM glycine. The NMDA currents were recorded at a membrane potential of −70 mV and at room temperature (~25 °C) with an […] amplifier, filtered at 1 kHz with a four-pole Bessel filter, digitized at 500 μs intervals, and stored using a Digidata-1322A analog/digital interface along with the pCLAMP software (all from MDS Analytical Technologies, Sunnyvale, CA). […]

In the case of `[Ca+2]` [Ca^2+], the “overall current flow through the NMDA channel in Ca2+” value [1] is listed as 45 pS, the “effect on NMDAR current, cation present during the NMDA pulse” value ([2]; 300 μM NMDA plus 30 μM glycine) is listed as “decreases the NMDAR current” and the “effect on NMDAR current peak, cation applied before but not during the NMDA pulse” value ([2]; closed channel) is listed as “evident decrease of the NMDAR current peak”. The “relative hook current after wash-off of agonists and blocking cation, compared with WT channel” value [3] was “significantly larger hook current”, the “overall current flow through the NMDA channel in Ca2+” value [4] was 41 pS and the “effect on sustained current (relative current) compared with WT channel” value [5] was “significantly decreased”.
